The values that follow come from patent publication US20250135006A1, “AMPHIPHILIC TLR7/8 ADJUVANTS AND USES THEREOF” (Pfizer Inc., priority 2023, published 2025).

pEC50: −log10 of the molar value.

This assay deals with T1, human toll like receptor 7 (hTLR7) (Homo sapiens, UniProt Q9NYK1).
T1 construct: host or cells: HEK293 (HEK-Blue hTLR7)
T1 sequence (Q9NYK1 27-1049): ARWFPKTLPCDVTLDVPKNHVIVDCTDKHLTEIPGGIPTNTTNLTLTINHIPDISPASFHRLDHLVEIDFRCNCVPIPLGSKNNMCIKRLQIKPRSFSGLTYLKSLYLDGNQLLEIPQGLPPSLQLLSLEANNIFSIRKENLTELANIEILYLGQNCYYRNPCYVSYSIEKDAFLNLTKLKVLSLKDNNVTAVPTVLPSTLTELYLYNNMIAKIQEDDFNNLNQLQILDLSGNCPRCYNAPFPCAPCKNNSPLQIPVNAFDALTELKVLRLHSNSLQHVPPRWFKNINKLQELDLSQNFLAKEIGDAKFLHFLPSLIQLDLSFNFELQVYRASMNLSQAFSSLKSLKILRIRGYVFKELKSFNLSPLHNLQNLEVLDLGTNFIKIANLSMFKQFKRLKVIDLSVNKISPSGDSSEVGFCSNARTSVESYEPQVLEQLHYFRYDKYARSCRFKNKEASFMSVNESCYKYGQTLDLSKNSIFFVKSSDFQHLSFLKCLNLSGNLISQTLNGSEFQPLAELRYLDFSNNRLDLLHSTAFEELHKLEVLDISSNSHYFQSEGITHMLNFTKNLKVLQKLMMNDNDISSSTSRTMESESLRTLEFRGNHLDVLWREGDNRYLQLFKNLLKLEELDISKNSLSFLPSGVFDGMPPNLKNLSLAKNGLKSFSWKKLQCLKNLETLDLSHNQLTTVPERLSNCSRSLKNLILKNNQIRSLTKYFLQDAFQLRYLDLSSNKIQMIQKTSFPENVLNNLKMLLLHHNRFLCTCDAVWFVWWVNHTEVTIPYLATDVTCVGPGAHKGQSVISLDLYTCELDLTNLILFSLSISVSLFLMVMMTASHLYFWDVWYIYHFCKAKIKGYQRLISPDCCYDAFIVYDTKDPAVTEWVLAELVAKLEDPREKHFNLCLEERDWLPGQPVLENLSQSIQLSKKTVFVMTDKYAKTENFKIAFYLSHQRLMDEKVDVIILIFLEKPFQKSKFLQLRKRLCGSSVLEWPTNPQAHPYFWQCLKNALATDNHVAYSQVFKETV
The assay can be described thus: hTLR7 in-vitro functional assay (HEK-Blue hTLR7 SEAP reporter). The format is cell-based. Conditions: HEK-Blue hTLR7 cells, overnight incubation.

The molecule `CCCCc1nc2c(N)nc3cc(CCCN4CCN(C(=O)CCOCCOCCOCCOCCOCCOCCOCCOCCOCCOCCOCCOCCOCCOCCOCCOCCOCCOCCOCCOCCOCCOCCOCCOCCNC(=O)CCOCCOCCOCCOCCNC(=O)CCCOc5c(C)c(C)c6c(c5C)CC[C@@](C)(CCC[C@H](C)CCC[C@H](C)CCCC(C)C)O6)CC4)ccc3c2n1CC(C)(CO)CO` [Compound 2, N-{75-[4-(3-{4-amino-2-butyl-1-[3-hydroxy-2-(hydroxymethyl)-2-methylpropyl]-1H-imidazo[4,5-c]quinolin-7-yl}propyl)piperazin-1-yl]-75-oxo-3,6,9,12,15,18,21,24,27,30,33,36,39,42,45,48,51,54,57,60,63,66,69,72-tetracosaoxapentaheptacont-1-yl}-17-oxo-20-({(2R)-2,5,7,8-tetramethyl-2-[(4R,8R)-4,8,12-trimethyltridecyl]-3,4-dihydro-2H-chromen-6-yl}oxy)-4,7,10,13-tetraoxa-16-azaicosan-1-amide] showed a pEC50 of 6.45.

The term pEC50 denotes −log10 of the EC50, conventionally taken in molar units. A lower pEC50 goes with a high EC50.
